Measurements: patent publication EP2253266A1, “Method for treating patients with cerebral calcifications” (Assistance Publique - Hôpitaux de Paris, priority 2009, dated 2010)

Columns and labels:
[1] = tested on: patients having diffuse cerebral calcifications; assay: Clinical response to treatment of patients with cerebral calcifications and cerebral folate deficiency (global disability score, subjective evaluations, neurological examination, serial videos); assay type: in vivo, humans; set-up: key to Global score after treatment: 1: Autonomous for all activities of daily living; 2: can walk at least 100 meters alone, needs help for few activities of daily living; 3: can walk unaided about 10 meters, needs help for many activities of daily living; 4: can not walk alone, needs aid for most activities of daily living; conditions: for Global score after treatment: global score before treatment 3
Description: Three patients having diffuse cerebral calcifications involving the basal ganglia, cerebellar dentate nuclei, white matter and in one patient the occipital cortex (Table 3) were studied. These neuroradiological findings were indistinguishable from Fahr's Syndrome (IBGC MIM # 114100, # 213600). […] Autonomous for all activities of daily living • 2: can walk at least 100 meters alone, needs help for few activities of daily living • 3: can walk unaided about 10 meters, needs help for many activities of daily living • 4: can not walk alone, needs aid for most activities of daily living. The clinical response to treatment was judged based on the patient's, patient's family, nurses and neurologist subjective evaluations, neurological examination and serial videos. A global disability score was designed to evaluate clinical severity and evolution (see table 3 legend). Table 4: Effect of treatments

[2] = quoted from WO 2006/119589; cited from earlier work
[3] = quoted from WO 2006/119589; cited from earlier work; remark: listed apart in the source

Structure (SMILES): Nc1nc2c(c(=O)[nH]1)N(C=O)C(CNc1ccc(C(=O)N[C@@H](CCC(=O)O)C(=O)O)cc1)CN2 (stereo partly shown) [Calcium folinate, 5-formyltetrahydrofolic acid]
- other treatments leading to less or only transient improvement ([1]; patient #1, IVIg 0.4gr/kgX5d every 6weeks): Calcium folinate led to marked initial impro-vement that waned after 6 months. IVIg (0.4gr/kgX5d every 6weeks) led to improvement of walking during 4 months
- other treatments leading to less or only transient improvement ([1]; patient #3, Calcium folinate 75 mg/d): Calcium folinate 75 mg/d: same effect than MTHF

Structure (SMILES): CN1c2c(nc(N)[nH]c2=O)NCC1CNc1ccc(C(=O)NC(CCC(=O)O)C(=O)O)cc1 (stereo not shown) [MTHF, 5-methyltetrahydrofolate]
- bio-availability [2]: high bio-availability
- toxicity studies [3]: no adverse effects
- Global score after treatment ([1]; patient #1, MTHF 2 mg/kg/d, treatment duration 2 years ½): 2
- Global score after treatment ([1]; patient #2, MTHF 2 mg/kg/d, treatment duration 14 months): 3
- Global score after treatment ([1]; patient #3, MTHF 1.5 mg/kg/d, treatment duration 1 year): 2
